Experimental data reported in patent US7582611B2, “Motilide compounds” (Pfizer Inc., priority 2005, dated 2009).
≈ marks a conversion by molar mass, not a printed value. Where two headings read alike, the source gives them in different places.

How the values were obtained:
[1] = molecular target: T1, Motilin Receptor (Oryctolagus cuniculus, UniProt G1T803); assay: Tissue based assay for motilin agonist potency (rabbit duodenum contractility); format: cell-based
T1 construct: strips of longitudinal smooth muscle were sliced from the segments; from tissue; host or cells: rabbit duodenum longitudinal smooth muscle strips
T1 sequence (G1T803 1-400): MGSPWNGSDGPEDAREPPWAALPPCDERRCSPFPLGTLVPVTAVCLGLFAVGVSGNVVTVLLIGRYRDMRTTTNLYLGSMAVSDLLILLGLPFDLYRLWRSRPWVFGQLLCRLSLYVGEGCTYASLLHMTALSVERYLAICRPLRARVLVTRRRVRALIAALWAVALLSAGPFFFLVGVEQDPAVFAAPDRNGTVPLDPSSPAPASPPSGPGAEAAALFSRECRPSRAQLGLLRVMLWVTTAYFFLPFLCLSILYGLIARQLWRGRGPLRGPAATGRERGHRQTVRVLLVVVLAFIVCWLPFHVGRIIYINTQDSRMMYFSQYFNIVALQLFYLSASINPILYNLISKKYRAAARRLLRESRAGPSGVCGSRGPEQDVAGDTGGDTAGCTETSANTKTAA
In short: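 Longitudinal smooth-muscle strips of rabbit duodenum, mucosa removed, in oxygenated Krebs at 37 °C under 1.5 g tension; auxotonic contractions. Cumulative doses at ~2 min intervals, then 1 μM carbachol; responses minus basal tension, normalized to carbachol, fitted to R=(Rmax·C)/(EC50+C) for EC50.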

[2] = system: Streptococcus pneumoniae ATCC 6301; assay: Evaluation of antibacterial activity (MIC, serial dilutions on 96-well microtiter plates); format: cell-based; settings: ATCC6301, read-out: Antibacterial Activity (MIC, μg/mL)
[3] = rabbit duodenum strips, contraction normalized to 1 μM carbachol, read-out: Motilin Receptor Agonist Activity (EC50)

Row | Compound | EC50 [1, 3] | MIC [2] | EC50 [1]
1 | CC[C@H]1OC(=O)[C@H](C)[C@@H](O[C@H]2C[C@@](C)(OC)[C@@H](O)[C@H](C)O2)[C@H](C)[C@@H](O[C@@H]2O[C@H](C)C[C@H](N(C)C3CCC3)[C@H]2O)[C@](C)(O)C[C@@H](C)[C@H](OC(C)=O)[C@H](C)[C@@H](O)[C@]1(C)O [Compound A-24] | 860 nM | > 128 µg/mL | –
2 | CC[C@H]1OC(=O)[C@H](C)[C@@H](O[C@H]2C[C@@](C)(OC)[C@@H](O)[C@H](C)O2)[C@H](C)[C@@H](O[C@@H]2O[C@H](C)C[C@H](N(C)C(C)C)[C@H]2O)[C@](C)(O)C[C@@H](C)[C@H](OCCCC(=O)NC)[C@H](C)[C@@H](O)[C@]1(C)O [Compound A-73] | 84 nM | 128 µg/mL (≈ 148 µM) | –
3 | CCNC(=O)CO[C@@H]1[C@H](C)[C@@H](O)[C@](C)(O)[C@@H](CC)OC(=O)[C@H](C)[C@@H](O[C@H]2C[C@@](C)(OC)[C@@H](O)[C@H](C)O2)[C@H](C)[C@@H](O[C@@H]2O[C@H](C)C[C@H](N(C)C(C)C)[C@H]2O)[C@](C)(O)C[C@H]1C [Compound A-31] | 67 nM | > 128 µg/mL | –
4 | CCOC(=O)CO[C@@H]1[C@H](C)[C@@H](O)[C@](C)(O)[C@@H](CC)OC(=O)[C@H](C)[C@@H](O[C@H]2C[C@@](C)(OC)[C@@H](O)[C@H](C)O2)[C@H](C)[C@@H](O[C@@H]2O[C@H](C)C[C@H](N(C)C[C@H](C)O)[C@H]2O)[C@](C)(O)C[C@H]1C [Compound A-9] | 430 nM | > 128 µg/mL | –
5 | CCCNC(=S)NCCO[C@@H]1[C@H](C)[C@@H](O)[C@](C)(O)[C@@H](CC)OC(=O)[C@H](C)[C@@H](O[C@H]2C[C@@](C)(OC)[C@@H](O)[C@H](C)O2)[C@H](C)[C@@H](O[C@@H]2O[C@H](C)C[C@H](N(C)C(C)C)[C@H]2O)[C@](C)(O)C[C@H]1C [Compound A-57] | 210 nM | 128 µg/mL (≈ 141 µM) | –
6 | CC[C@H]1OC(=O)[C@H](C)[C@@H](O[C@H]2C[C@@](C)(OC)[C@@H](O)[C@H](C)O2)[C@H](C)[C@@H](O[C@@H]2O[C@H](C)C[C@H](N(C)C(C)C)[C@H]2O)[C@](C)(O)C[C@@H](C)[C@H](OCC(=O)NC2CCC2)[C@H](C)[C@@H](O)[C@]1(C)O [Compound A-45] | 28 nM | 128 µg/mL (≈ 146 µM) | –
7 | CC[C@H]1OC(=O)[C@H](C)[C@@H](O[C@H]2C[C@@](C)(OC)[C@@H](O)[C@H](C)O2)[C@H](C)[C@@H](O[C@@H]2O[C@H](C)C[C@H](N(C)C(C)C)[C@H]2O)[C@](C)(O)C[C@@H](C)[C@H](OCC(=O)NCCOC)[C@H](C)[C@@H](O)[C@]1(C)O [Compound A-63] | 50 nM | 128 µg/mL (≈ 146 µM) | –
8 | CC[C@H]1OC(=O)[C@H](C)[C@@H](O[C@H]2C[C@@](C)(OC)[C@@H](O)[C@H](C)O2)[C@H](C)[C@@H](O[C@@H]2O[C@H](C)C[C@H](N(C)C(C)C)[C@H]2O)[C@](C)(O)C[C@@H](C)[C@H](OCC(=O)NC)[C@H](C)[C@@H](O)[C@]1(C)O [Compound A-21] | 58 nM | 64 µg/mL (≈ 76.6 µM) | –
9 | CC[C@H]1OC(=O)[C@H](C)[C@@H](O[C@H]2C[C@@](C)(OC)[C@@H](O)[C@H](C)O2)[C@H](C)[C@@H](O[C@@H]2O[C@H](C)C[C@H](N(C)C(C)C)[C@H]2O)[C@](C)(O)C[C@@H](C)[C@H](OCc2nccs2)[C@H](C)[C@@H](O)[C@]1(C)O [Compound A-29] | 290 nM | 128 µg/mL (≈ 149 µM) | –
10 | CC[C@H]1OC(=O)[C@H](C)[C@@H](O[C@H]2C[C@@](C)(OC)[C@@H](O)[C@H](C)O2)[C@H](C)[C@@H](O[C@@H]2O[C@H](C)C[C@H](N(C)C)[C@H]2O)[C@](C)(O)C[C@@H](C)C(=O)[C@H](C)[C@@H](O)[C@]1(C)O [Erythromycin A, reference compound] | – | 0.0025 µg/mL (≈ 0.00341 µM) | 1200 nM
11 | CC[C@H]1OC(=O)[C@H](C)[C@@H](O[C@H]2C[C@@](C)(OC)[C@@H](O)[C@H](C)O2)[C@H](C)[C@@H](O[C@@H]2O[C@H](C)C[C@H](N(C)C[C@H](C)O)[C@H]2O)[C@](C)(O)C[C@@H](C)[C@H](OCC(=O)O)[C@H](C)[C@@H](O)[C@]1(C)O [Compound A-11] | 740 nM | > 128 µg/mL | –
12 | CCC(=O)O[C@@H]1[C@H](C)[C@@H](O)[C@](C)(O)[C@@H](CC)OC(=O)[C@H](C)[C@@H](O[C@H]2C[C@@](C)(OC)[C@@H](O)[C@H](C)O2)[C@H](C)[C@@H](O[C@@H]2O[C@H](C)C[C@H](N(C)C3CCC3)[C@H]2O)[C@](C)(O)C[C@H]1C [Compound A-25] | 1200 nM | > 128 µg/mL | –
13 | CC[C@H]1OC(=O)[C@H](C)[C@@H](O[C@H]2C[C@@](C)(OC)C[C@H](C)O2)[C@H](C)[C@@H](O[C@@H]2O[C@H](C)C[C@H](N(C)C(C)C)[C@H]2O)[C@](C)(O)C[C@@H](C)[C@H](OCC(=O)NC)[C@H](C)[C@@H](O)[C@]1(C)O [Compound A-61] | 17 nM | 128 µg/mL (≈ 156 µM) | –
14 | CCNC(=O)NCCO[C@@H]1[C@H](C)[C@@H](O)[C@](C)(O)[C@@H](CC)OC(=O)[C@H](C)[C@@H](O[C@H]2C[C@@](C)(OC)[C@@H](O)[C@H](C)O2)[C@H](C)[C@@H](O[C@@H]2O[C@H](C)C[C@H](N(C)C(C)C)[C@H]2O)[C@](C)(O)C[C@H]1C [Compound A-54] | 100 nM | > 128 µg/mL | –
15 | CC[C@H]1OC(=O)[C@H](C)[C@@H](O[C@H]2C[C@@](C)(OC)[C@@H](O)[C@H](C)O2)[C@H](C)[C@@H](O[C@@H]2O[C@H](C)C[C@H](N(C)C(C)C)[C@H]2O)[C@](C)(O)C[C@@H](C)[C@H](NS(=O)(=O)C(F)(F)F)[C@H](C)[C@@H](O)[C@]1(C)O [Compound A-43] | 330 nM | 64 µg/mL (≈ 71.5 µM) | –
16 | CC[C@H]1OC(=O)[C@H](C)[C@@H](O[C@H]2C[C@@](C)(OC)[C@@H](O)[C@H](C)O2)[C@H](C)[C@@H](O[C@@H]2O[C@H](C)C[C@H](N(C)C(C)C)[C@H]2O)[C@](C)(O)C[C@@H](C)[C@H](OCC(=O)OC)[C@H](C)[C@@H](O)[C@]1(C)O [Compound A-22] | 140 nM | 128 µg/mL (≈ 153 µM) | –
17 | CC[C@H]1OC(=O)[C@H](C)[C@@H](O[C@H]2C[C@@](C)(OC)[C@@H](O)[C@H](C)O2)[C@H](C)[C@@H](O[C@@H]2O[C@H](C)C[C@H](N(C)C(C)C)[C@H]2O)[C@](C)(O)C[C@@H](C)[C@H](OCC(=O)N(C)C)[C@H](C)[C@@H](O)[C@]1(C)O [Compound A-15] | 660 nM | 64 µg/mL (≈ 75.4 µM) | –
18 | CC[C@H]1OC(=O)[C@H](C)[C@@H](O[C@H]2C[C@@](C)(OC)[C@@H](O)[C@H](C)O2)[C@H](C)[C@@H](O[C@@H]2O[C@H](C)C[C@H](N(C)C(C)C)[C@H]2O)[C@](C)(O)C[C@@H](C)[C@H](OCCF)[C@H](C)[C@@H](O)[C@]1(C)O [Compound A-49] | – | 128 µg/mL (≈ 158 µM) | 140 nM
19 | CC[C@H]1OC(=O)[C@H](C)[C@@H](O[C@H]2C[C@@](C)(OC)[C@@H](O)[C@H](C)O2)[C@H](C)[C@@H](O[C@@H]2O[C@H](C)C[C@H](N(C)C(C)C)[C@H]2O)[C@](C)(O)C[C@@H](C)[C@H](OCc2ccncc2)[C@H](C)[C@@H](O)[C@]1(C)O [Compound A-28] | > 420 nM | 128 µg/mL (≈ 150 µM) | –
20 | CCNC(=S)NCCO[C@@H]1[C@H](C)[C@@H](O)[C@](C)(O)[C@@H](CC)OC(=O)[C@H](C)[C@@H](O[C@H]2C[C@@](C)(OC)[C@@H](O)[C@H](C)O2)[C@H](C)[C@@H](O[C@@H]2O[C@H](C)C[C@H](N(C)C(C)C)[C@H]2O)[C@](C)(O)C[C@H]1C [Compound A-67] | 220 nM | > 128 µg/mL | –
21 | CC[C@H]1OC(=O)[C@H](C)[C@@H](O[C@H]2C[C@@](C)(OC)[C@@H](O)[C@H](C)O2)[C@H](C)[C@@H](O[C@@H]2O[C@H](C)C[C@H](N(C)C3CCC3)[C@H]2O)[C@](C)(O)C[C@@H](C)[C@H](NS(=O)(=O)C2CC2)[C@H](C)[C@@H](O)[C@]1(C)O [Compound A-42] | 340 nM | > 128 µg/mL | –
22 | CC[C@H]1OC(=O)[C@H](C)[C@@H](O[C@H]2C[C@@](C)(OC)C[C@H](C)O2)[C@H](C)[C@@H](O[C@@H]2O[C@H](C)C[C@H](N(C)C(C)C)[C@H]2O)[C@](C)(O)C[C@@H](C)[C@H](OCC(=O)N(C)C)[C@H](C)[C@@H](O)[C@]1(C)O [Compound A-60] | 190 nM | 128 µg/mL (≈ 154 µM) | –
23 | CC[C@@H](O)[C@@](C)(O)[C@@H]1OC(=O)[C@@H](C)[C@H](C[C@H]2C[C@@](C)(OC)[C@@H](O)[C@H](C)O2)[C@H](C)[C@@H](OC2O[C@H](C)C[C@H](N(C)C(C)C)[C@H]2O)[C@@]2(C)CC(C)=C(O2)[C@@H]1C (some centres unmarked) [KC-11458, reference compound] | 45 nM | > 128 µg/mL | –
24 | CC[C@H]1OC(=O)[C@H](C)[C@@H](O[C@H]2C[C@@](C)(OC)[C@@H](O)[C@H](C)O2)[C@H](C)[C@@H](O[C@@H]2O[C@H](C)C[C@H](N(C)C(C)C)[C@H]2O)[C@](C)(O)C[C@@H](C)[C@H](OCCNC(=O)c2ccc3[nH]cnc3c2)[C@H](C)[C@@H](O)[C@]1(C)O [Compound A-58] | 37 nM | 128 µg/mL (≈ 135 µM) | –
25 | CCOC(=O)CO[C@@H]1[C@H](C)[C@@H](O)[C@](C)(O)[C@@H](CC)OC(=O)[C@H](C)[C@@H](O[C@H]2C[C@@](C)(OC)[C@@H](O)[C@H](C)O2)[C@H](C)[C@@H](O[C@@H]2O[C@H](C)C[C@H](N(C)C3CCC3)[C@H]2O)[C@](C)(O)C[C@H]1C [Compound A-10] | 680 nM | > 128 µg/mL | –
